In publication PMC6320863, “Interaction of Chrysin and Its Main Conjugated Metabolites Chrysin-7-Sulfate and Chrysin-7-Glucuronide with Serum Albumin” (International Journal of Molecular Sciences, 2018):

Key:
[1] = target: T1, human serum albumin (HSA) (Homo sapiens, UniProt P02768); test: Fluorescence quenching of HSA by flavonoids (Stern–Volmer and Hyperquad2006 evaluation); assay type: binding; details: for Kd / logKSV (Stern–Volmer quenching constant): HSA 2 µmol/L, decimal log ± SEM; for Kd: PBS pH 7.4, Hyperquad2006, read-out: logK (binding constant) (converted); for logKSV (Stern–Volmer quenching constant): PBS pH 7.4, λex 295 nm, λem 340 nm; for Stability of flavonoid–HSA complex vs. the chrysin–HSA complex: relative to chrysin–HSA
T1 construct: purchased Sigma-Aldrich
Experimental: (§1) Fluorescence spectroscopic measurements were carried out employing a Hitachi F-4500 fluorimeter (Tokyo, Japan). Absorption spectra of flavonoids were recorded using a HALO DB-20 UV-Vis spectrophotometer (Dynamica, London, UK). Spectroscopic measurements were performed in phosphate-buffered saline (pH 7.4; PBS: 8.0 g/L NaCl, 0.2 g/L KCl, 1.81 g/L Na2HPO4·2H2O, and 0.24 g/L KH2PO4) at room temperature, in the presence of air.
(§2) The complex formation of flavonoids with albumin was tested with both HSA and BSA. Binding constants of flavonoid–albumin complexes were determined by fluorescence quenching, during which emission spectra of albumins (2 µmol/L) were recorded in the presence of increasing flavonoid concentrations (0.0, 0.5, 1.0, 2.0, 3.0, 4.0 and 5.0 µmol/L; λexc = 295 nm). Quenching studies were evaluated based on the graphical application of the Stern–Volmer equation [31, 34]. To eliminate the potential inner filter effects of flavonoids, fluorescence intensities were corrected as described.
(§3) Binding constants (K) of flavonoid–albumin complexes were also evaluated by non-linear fitting employing the Hyperquad2006 program package (Protonic Software, Leeds, UK) as described elsewhere. Binding constants and stoichiometry were quantified based on the model with the lowest standard deviation.

[2] = design: method as in PMID 11259985; details: healthy human volunteers, 400 mg chrysin orally; cited from earlier work
warfarin–HSA complex [3] = system: T2, warfarin–HSA complex; test: Fluorescence anisotropy of warfarin–HSA complex; assay type: binding, human; details: 1.0 µmol/L warfarin, 2.0 µmol/L HSA, increasing flavonoid concentrations, λex 317 nm, λem 379 nm
T2 construct: purchased Sigma-Aldrich
Experimental: as §1
To confirm further the displacement of warfarin from HSA by chrysin, C7S, and C7G, fluorescence anisotropy measurements were also performed. Increasing concentrations of flavonoids (0.0, 1.0, 2.0, 5.0, and 10 µmol/L) were added to warfarin and HSA (1.0 and 2.0 µmol/L, respectively). Fluorescence anisotropy values were determined (λex = 317 nm; λem = 379 nm) as described.

[4] = design: method as in PMID 25715997; details: mice, oral administration of 20 mg/kg chrysin; read-out: Cmax (peak plasma concentration); cited from earlier work
[5] = target: T3, bovine serum albumin (BSA) (Bos taurus, UniProt P02769); test: Fluorescence quenching of BSA by flavonoids (Stern–Volmer and Hyperquad2006 evaluation); assay type: binding; details: BSA 2 µmol/L, decimal log ± SEM; for Kd: PBS pH 7.4, Hyperquad2006, read-out: logK (binding constant) (converted); for logKSV (Stern–Volmer quenching constant): PBS pH 7.4, λex 295 nm, λem 340 nm
T3 construct: purchased Sigma-Aldrich
Experimental: as §1, §2, §3

HSA = details: cited from earlier work
[6] = system: T4, warfarin–HSA complex (Sudlow's Site I); test: Ultrafiltration: displacement of Site I marker warfarin from HSA; assay type: binding, human; details: 1 µmol/L warfarin, 5 µmol/L HSA, PBS pH 7.4
T4 construct: purchased Sigma-Aldrich
Experimental: (§4) Effects of chrysin, C7S, and C7G on the albumin-binding of Sudow’s Site I (warfarin) and Site II (naproxen) markers were tested by ultrafiltration. In these experiments, Pall Microsep^TM Advance Centrifugal Devices (Pall Corporation, Ann Arbor, MI, USA) (from VWR) with a 30 kDa molecular weight cut-off value were employed, as described elsewhere. To examine the displacement of warfarin by flavonoids, samples contained warfarin and HSA (1.0 and 5.0 µmol/L, respectively) in the absence and presence of flavonoids (10 or 20 µmol/L). Furthermore, to test the displacing ability of chrysin and its metabolites vs. naproxen, flavonoids (10 or 20 µmol/L) were added to naproxen and HSA (1.0 and 1.7 µmol/L, respectively). Each sample was prepared in PBS (pH 7.4). Before ultrafiltration, filter units were washed once with 3 mL of water, and twice with 3 mL of PBS (to completely eliminate glycerol from the filters). Thereafter, samples (2.5 mL each) were driven through the filter units by centrifugation at 7500 g and 25 °C for 10 min (fixed angle rotor). Concentrations of warfarin and naproxen in the filtrate were quantified with HPLC (see details in Section 4.4).
(§5) The HPLC system used to quantify warfarin and naproxen was equipped with a pump (model 510, Waters, Milford, MA, USA) and an injector (Rheodyne 7125, Rheodyne, Berkeley, CA, USA) with a 20 µL sample loop. Warfarin and naproxen were analyzed with a fluorescence detector (Jasco FP-920, Reanal) and an UV detector (Waters 486), respectively. Data were evaluated using Millennium Chromatography Manager (Waters).
Warfarin was analyzed based on the previously reported method without modifications. Methanol (VWR), acetonitrile (VWR), and sodium phosphate buffer (20 mM, pH 7.0) (25:5:70 v/v%) were applied in the mobile phase with 1 mL/min flow rate during the isocratic elution. Samples were driven through a guard column (Phenomenex SecurityGuard^TM Catridge C18 4.0 × 3.0 mm) linked to an analytical column (Nova-Pak C18 150 × 3.9 mm, 4 μm). Separation and analysis were performed at room temperature, during which warfarin was detected by fluorescence employing 310 and 390 nm as excitation and emission wavelengths, respectively.

[7] = system: T5, naproxen–HSA complex (Sudlow's Site II); test: Ultrafiltration: displacement of Site II marker naproxen from HSA; assay type: binding, human; details: 1 µmol/L naproxen, 1.7 µmol/L HSA, PBS pH 7.4
T5 construct: purchased Sigma-Aldrich
Experimental: as §4, §5
Naproxen was quantified based on the previously reported method without modifications. Acetonitrile and sodium acetate buffer (6.9 mM, pH 4.0) (50:50 v/v%) were applied in the mobile phase with a 1 mL/min flow rate during the isocratic elution. […] Separation and analysis were performed at room temperature, during which naproxen was detected by absorbance at 230 nm.

warfarin–HSA complex [8] = system: T2, warfarin–HSA complex; test: Steady-state fluorescence of warfarin–HSA complex (displacement of warfarin); assay type: binding, human; details: 1.0 µmol/L warfarin, 3.5 µmol/L HSA, flavonoid 0.5–10 µmol/L, λex 317 nm
Experimental: as §1
Displacement of warfarin (site marker of Sudlow’s Site I) from HSA was examined based on the previously reported model. Increasing concentrations of chrysin, C7S, and C7G (0.0, 0.5, 1.0, 2.0, 3.0, 5.0, and 10 µmol/L) were added to standard concentrations of warfarin and HSA (1.0 and 3.5 µmol/L, respectively). Thereafter, fluorescence emission spectra were recorded using 317 nm as excitation wavelength.

[9] = 10 and 20 μM flavonoid (both concentrations)
[10] = 10 or 20 μM flavonoid (both concentrations)

T3 sequence (P02769 25-607): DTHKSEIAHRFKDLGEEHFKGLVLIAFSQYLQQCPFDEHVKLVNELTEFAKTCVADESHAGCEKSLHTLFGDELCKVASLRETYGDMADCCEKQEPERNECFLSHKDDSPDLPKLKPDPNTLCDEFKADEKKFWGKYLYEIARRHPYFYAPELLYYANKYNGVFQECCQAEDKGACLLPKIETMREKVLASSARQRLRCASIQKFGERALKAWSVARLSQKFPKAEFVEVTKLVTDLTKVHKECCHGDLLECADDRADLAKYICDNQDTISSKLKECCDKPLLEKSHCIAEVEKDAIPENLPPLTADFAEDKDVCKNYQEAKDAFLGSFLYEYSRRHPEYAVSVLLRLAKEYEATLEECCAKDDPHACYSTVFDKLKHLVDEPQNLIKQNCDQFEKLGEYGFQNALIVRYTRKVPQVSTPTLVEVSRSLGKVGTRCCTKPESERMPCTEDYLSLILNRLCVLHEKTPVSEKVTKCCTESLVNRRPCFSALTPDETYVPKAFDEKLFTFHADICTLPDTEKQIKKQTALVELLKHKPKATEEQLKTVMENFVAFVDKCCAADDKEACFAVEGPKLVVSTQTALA
T1 sequence (P02768 25-609): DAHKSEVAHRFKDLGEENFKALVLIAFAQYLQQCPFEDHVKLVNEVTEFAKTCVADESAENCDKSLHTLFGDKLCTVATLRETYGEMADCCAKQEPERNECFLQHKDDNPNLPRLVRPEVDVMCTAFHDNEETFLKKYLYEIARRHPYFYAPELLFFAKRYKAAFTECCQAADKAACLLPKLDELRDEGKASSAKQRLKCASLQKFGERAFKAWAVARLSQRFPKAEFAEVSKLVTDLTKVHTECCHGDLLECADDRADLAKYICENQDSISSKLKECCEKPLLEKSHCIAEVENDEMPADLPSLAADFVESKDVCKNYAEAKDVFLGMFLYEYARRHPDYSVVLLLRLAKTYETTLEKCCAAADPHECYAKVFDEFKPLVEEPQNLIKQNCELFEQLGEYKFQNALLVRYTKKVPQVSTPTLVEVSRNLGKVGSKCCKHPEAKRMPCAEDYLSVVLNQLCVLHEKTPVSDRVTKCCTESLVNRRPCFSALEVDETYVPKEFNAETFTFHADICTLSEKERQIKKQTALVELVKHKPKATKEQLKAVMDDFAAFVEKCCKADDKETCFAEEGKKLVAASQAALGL

SMILES | Kd [1] | logKSV (Stern–Volmer quenching constant) [1] | AUC0–∞ [2] | Fluorescence anisotropy of warfarin (warfarin–HSA complex [3]) | Cmax [4] | Kd [5] | logKSV (Stern–Volmer quenching constant) [5] | K (binding constant to HSA) (HSA) | Concentration of warfarin in the filtrate ([6]; 20 μM flavonoid) | Concentration of naproxen in the filtrate [7, 9] | Fluorescence emission signal of warfarin at 379 nm (warfarin–HSA complex [8]) | Stability of flavonoid–HSA complex vs. the chrysin–HSA complex [1] | Concentration of warfarin in the filtrate [6, 10] | Concentration of naproxen in the filtrate ([7]; higher flavonoid concentration (20 μM)) | AUC0–∞ of C7S compared with chrysin [2] | Concentration of warfarin in the filtrate ([6]; 10 μM flavonoid) | logK (complex with HSA) (HSA)
O=c1cc(-c2ccccc2)oc2cc(O)cc(O)c12 [Chrysin, 5,7-dihydroxyflavone] | 3.89 µM | 5.25 ± 0.02 L/mol | 3 to 16 ng·h/mL | strong decrease | 10 nM | 6.31 µM | 5.03 ± 0.06 L/mol | 10^5–10^6 L/mol | statistically significant (albeit slight) increase | statistically significant elevation | significantly decreased |  |  |  |  |  | 
O=C(O)C1OC(Oc2cc(O)c3c(=O)cc(-c4ccccc4)oc3c2)C(O)C(O)C1O (stereo not shown) [Chrysin-7-glucuronide, chrysin-7-glucuronide] | 12.9 µM | 4.71 ± 0.03 L/mol |  |  | 130 nM | 23.4 µM | 4.34 ± 0.03 L/mol |  |  |  | only a slight (but statistically significant) effect | threefold lower | did not significantly change | significant effect |  |  | 
O=c1cc(-c2ccccc2)oc2cc(OS(=O)(=O)O)cc(O)c12 [Chrysin-7-sulfate, chrysin-7-sulfate] | 1.32 µM | 5.61 ± 0.03 L/mol | 420 to 4220 ng·h/mL | strong decrease | 160 nM | 0.631 µM | 5.86 ± 0.04 L/mol |  |  | statistically significant elevation | strongest decrease | threefold higher | practically the complete displacement of bound warfarin molecules from HSA |  | approximately 30 fold | remarkable increase | 
C[C@@H]1Cc2c(Cl)cc(C(=O)N[C@@H](Cc3ccccc3)C(=O)O)c(O)c2C(=O)O1 [Ochratoxin A, ochratoxin A, reference compound] |  |  |  |  |  |  |  |  |  |  |  |  |  |  |  |  | 7.4–7.6
